Test results: patent US20030216569A1, “Method of making HIV protease inhibitors” (priority 1993, published 2003)
Where a name gives a salt, the structure may show the parent alone. Read-outs that look alike come from different tables or passages of the source. Marks after values point to notes of the source that are not given here.

How the values were obtained:
[1] = tested on: Viral SN123 infected CEM cells
Description: Purpose: To determine IC50 CC50 for compounds:
Media A [1% DMSO] (100 microliters DMSO+9.9 ml media A)
CEM cells @ [1×10^4] cells/ml (4 plate=40 ml) (6 plate=60 ml)
(need 70 microliters of each)
A-D at [10 mM] in 100% DMSO
4 or 6 u-bottom 96-well plates
4 flat bottom 96-well plates for dilutions
8-10 boxes of sterile costar tips
Approximately 10 reagent trays
1000 cells/well=1×10^4 cells/ml=1000 cells/100 microliters 200 microliters=total volume in a well
Cell Preparation and Plating of Cells, Media A and Media A (1% DMSO)
a. Number a 96-well tissue culture plate for each compound tested, one for a control plate, and one for the control compound.
b. Count cells on hemacytometer and resuspend them in 40 ml or 80 ml of Media A at a concentration of [1×10^4]0 cells/ml.
Counting Cells on a Hemacytomer:
Label two 1.8 ml nuc tubes 1 and 2.
Put 0.5 ml of well mixed CEM cells (in growth phase) in tube 1.
Put 50 micoliters PBS and 40 microliters of trypan blue into tube 2.
Mix up the cells in tube 1 then remove 10 microliters of cells and put them into tube 2.
Mix well in tube 2, then remove 10 microliters of the stained cells and put them on the hemacytometer.
Count the number of cells in the center square of the hemacytometer with the microscope set on 10×.
The concentration of the stock CEM's in cells/ml is as follows:
Cells counted×1×10^5=Concentration of CEM's in [cells/ml].
c. Add 200 microliters Media A to: A1 of places 2-6. These are Blanks. A4-H4 of plate 1. These are Blanks.
d. Add 5 microlicers Media A to all wells of Rows A-D of plates 2-6 except A1 (the top half of each plate).
e. Add 50 microliters of Media A to wells A1-D3 of Plate 1 (the top half of the plate).
f. Add 50 microliters Media A[l% DMSO] to all wells of Columns 1-3 of plate 1.
This puts 1000 cells/well.
h. Put plates in an incubator while doing drug dilutions.
Preparation Control and Test Drugs
(1) Put 60 microliters of DMSO into all wells of Columns 2-12, Rows A-E.
(3) Put 70 microliters of A [10 mM] at 100% DMSO into well B1.
(4) Put 70 microliters of B [10 mM] at 100% DMSO into well C1.
(5) Put 70 microliters of C [10 mM] at 100% DMSO into well D1.
(6) Put 70 microliters of D [10 mM] at 100% DMSO into well E1.
Change tips before each dilution.
(1) In rows A-E of another plate make a row for the first 1:10 dilution to correspond to each compound's 100% DMSO row.
A into Row B for the first 1:10 dilution.
B into Row C for the first 1:10 dilution.
C into Row D for the first 1:10 dilution.
D into Row E for the first 1:10 dilution.
(2) Put 180 microliters of media A into all wells of rows A-E corresponding to the 100% DMSO rows. 2.5 ml needed per row.
(3) Remove 20 microliters from all wells of each row of the 100% DMSO rows and transfer it to the corresponding 1:10 row.
(1) Make a plate for every 3 compounds to be tested.
Use 20 ml of media A per plate.
(3) Transfer 25 microliters of each compound from the row in the 1:10 dilution to the corresponding two rows on the 1:100 dilution plate changing tips before each transfer.
Addition of Viral SN123 to Plates
a. Thaw Sn123 in 37° C. water bath for approximately 10 minutes.
b. Dilute Sn123 1:16 by adding 1 ml of Sn123 to 15 ml of media A.
c. Add 50 microliters of Sn123 [1:16] to wells E1-H12 of plates 2-6 and to wells E1-H3 of plate 1.
Addition of Drugs to Plates
a. Add 50 microliters of the control and test drugs from the rows in the 1:100 dilution plates to the appropriate rows in the final plates (changing tips before each transfer). One row in the 1:100 plate will do 4 rows in the final plate. Leave A1 blank.
b. Incubate all plates 7 days at 37° C. 5% CO2.
c. Do Xtt protocol on day 7 as follows:
d. Preparation of Xtt/PMS Solution: (4 plate=20 ml) (6 plate=30 ml)
100 microliters [100 mM] PMS+4.9 ml PBS=PMS at [2 mM]
(2) Heat 500 ml of H2O in microwave for 5 minutes on high.
(3) Put 20 or 30 ml of phenol red RPMI in a 50 ml centrifuge tube.
(4) Put the RPMI in the beaker of hot water.
(5) Add 20 or 30 mg of XTT to the warmed up RPMI.

HIV-1 protease = HIV-1 protease (Human immunodeficiency virus type 1 group M subtype B, UniProt P04585); experiment: Fluorescence HIV-1 Protease Inhibitor Assay (Pandex); type: biochemical; parameters: made in house; host or cells: E. coli K12 L507/pHP10D (NRRL B-18560)
Description: A. Preparation of Protease and Gag Fractions
Lyophils of E. coli K12 L507/pHP10D were obtained from the Northern Regional Research Laboratory, Peoria, Ill. 61604, under the accession number NRRL B-18560 (deposited Nov. 14, 1989). The lyophils were decanted into tubes containing 10 ml LB medium (10 g Bacto-tryptone, 5 g Bacto-yeast extract, and 10 g aqueous sodium chloride per liter; the pH was adjusted to 7.5 and incubated at 32° C. overnight).
A small portion of the overnight culture was placed on LB-agar (LB medium with 15 g/L Bacto-agar) plates containing 12.5 micrograms/ml tetracycline in a manner so as to obtain a single colony isolate of E. coli K12 L507/pHP10D. The single colony obtained was inoculated into 10 ml of LB medium containing 12.5 micrograms/ml tetracycline and incubated overnight at 32° C. with vigorous shaking. The 10 ml overnight culture was inoculated into LB medium containing 12.5 micrograms/ml tetracycline and incubated at 32° C. with vigorous shaking until the culture reached mid-log phase. […]
3. Preparation of Protease Fraction
A culture of E. coli K12 L507/pHP10D was grown to mid-log phase at 32° C. in LB media containing 12.5 micrograms/ml tetracycline. The cultivation temperature was quickly elevated to 40° C. to induce gene expression, and the cells were allowed to grow for 2.5 hours at this temperature before the culture was quickly chilled on ice. The cells were centrifuged and the cell pellet was resuspended in 20 ml of 50 mmol MES buffer (pH 6.0) containing 1 mmol EDTA, 1 mmol DTT, 1 mmol PMSF and 10% glycerol (“Buffer A”). Cells were lysed by sonication using a Fischer Model 300 Dismembrator and a microtip probe. Following centrifugation at 27,000×g, the supernatant was diluted to a total volume of 60 ml with Buffer A and loaded onto a 2.0×19 cm QAE-Sepharose column (1 ml/min, 4° C.), that had been equilibrated in Buffer A. The column was washed isocratically for 180 min and then eluted with a gradient eluent of […] aqueous sodium chloride in Buffer A over 120 min. Enzymatic activity was measured by HPLC using the synthetic peptide Ser-Gln-Asn-Tyr-Pro-Ile-Val as described in Margolin et al., Biochem. Biophys. Res. Commun., 167, 554-560 (1990); the production of the p1 peptide (Ser-Gln-Asn-Tyr) was measured.
The active fractions were combined, adjusted to […] 1.2M in ammonium sulfate, and applied to a 2.0×18 cm hexyl agarose column that had been equilibrated in Buffer A containing 1.2M ammonium sulfate. The sample was loaded at a flow rate of 1 ml/min at 4° C., washed with the equilibration buffer for 240 min (1 ml/min) and then eluted using a reverse linear gradient of 1.2-0M ammonium sulfate in Buffer A for 120 min at the same flow rate. The column was then washed isocratically in Buffer A for 120 min.
The active fractions were combined, concentrated to 10 ml using an Amicon stirred cell with a YM-10 membrane and then applied to a MonoS cation exchange column (1.0×10 cm) that had been equilibrated in Buffer A. The sample was loaded at a flow rate of 1 ml/min at 25° C. After washing isocratically for 30 min, the protease was eluted using a linear gradient of 0-0.45M aqueous sodium chloride in Buffer A over 40 min. The column was washed isocratically in Buffer A containing 0.45M aqueous sodium chloride for 30 minutes.
The active fractions were combined and concentrated to 200 microliters using an Amicon stirred cell and a YM-10 membrane and then the protease was applied to a Superose 6 size exclusion column equilibrated in Buffer A containing 0.1M aqueous sodium chloride.

[2] = Human immunodeficiency virus 1, CCRF-CEM, read-out: Whole cell IC50 nM, CEM cells, values in parentheses are 35B in same assay
[3] = Human immunodeficiency virus 1, CCRF-CEM, read-out: Whole cell IC90 nM, CEM cells, values in parentheses are 35B in same assay
[4] = normalized to positive control (=1.0), * = a calculated average, read-out: Fluorescence Assay IC50 in ng/mL (converted)
[5] = value as run, 35B value of the same run in footnote or parentheses, read-out: Pandex IC50 ng/ml (converted)
[6] = normalized to positive control (=1.0), * = a calculated average

CC(C)(C)NC(=O)C1CC2CCCCC2CN1CC(O)C(CSc1ccccc1)NC(=O)c1cccc2ncccc12 (stereo not drawn) [Example 31, [3S-(3R*,4aR*,8aR*,2′S*,3′S*)]-2-[2′-Hydroxy-3′-phenylthiomethyl-4′-aza-5′-oxo-5′-(quinolin-5″-yl)pentyl] decahydroisoquinoline-3-N-t-butylcarboxamide]
IC50 [1, 2]: 430 nM | IC90 [1, 3]: 884 nM | IC50 (HIV-1 protease; [4]): 2.04 nM | IC50 (HIV-1 protease; [5]): 5.94 nM

Cc1c(O)cccc1C(=O)NC(Cc1ccccc1)C(O)CN1CC2CCCCC2CC1C(=O)NC(C)(C)C (stereo not drawn) [Example 28, [3S-(3R*,4aR*,8aR*,2′S*,3′R*)]-2-[2′-Hydroxy-3′-phenylmethyl-4′-aza-5′-oxo-5′-(2″-methyl-3″-hydroxyphenyl)pentyl] decahydroisoquinoline-3-N-t-butylcarboxamide monomesylplate salt]
IC50 ([1]; read-out: Whole cell IC50 nM, CEM cells, tested as the mesylate salt): 35.7 nM | IC90 ([1]; read-out: Whole cell IC90 nM, CEM cells, tested as the mesylate salt): 91.8 nM

CC(C)(C)NC(=O)c1ccccc1C[C@@H](O)[C@H](CSc1ccc2ccccc2c1)NC(=O)c1cccc2c1CCCN2 (relative stereo) [Example 64, [2′R-(2′R*,3′S*)]-N-t-Butyl-2-[2′-hydroxy-3′-naphth-2-ylthiomethyl-4′-aza-5′-oxo-5′-(1″,2″,3″,4″-tetrahydroquinolin-5″-yl)pentyl] benzamide]
IC50 (HIV-1 protease; [4]): 194 nM

CC(=O)Oc1cccc(C(=O)N[C@@H](Cc2ccccc2)[C@H](O)CN2C[C@H]3CCCC[C@H]3C[C@H]2C(=O)NC(C)(C)C)c1C (relative stereo) [Example 82, [3S-(3R*, 4aR*, 8aR*, 2′S*, 3′R*)]-2-[2′-Hydroxy-3′-phenylmethyl-4′-aza-5′-oxo-5′-(2″-methyl-3″-(acetyl)hydroxyphenyl)pentyl]decahydroisoquinoline-3-N-t-butyl carboxamide]
IC50 (HIV-1 protease; [5]): 325 nM

[2′R-(2′R*,3′S*)]-N-t-Butyl-2-[2′-hydroxy-3′-naphth-2-ylthiomethyl-4′-aza-5′-oxo-5′-(1″-N(methyl)indol-4″-yl)pentyl] benzamide [Example 69]
Fluorescence Assay IC35 (HIV-1 protease; concentration of the inhibitor not increased above 15 μg/mL): IC35(15000)** ng/mL

Cc1ccsc1C(=O)N[C@@H](CSc1ccccc1)[C@H](O)CN1C[C@H]2CCCC[C@H]2C[C@H]1C(=O)NC(C)(C)C (relative stereo) [Example 90, [3S-(3R*, 4aR*, 8aR*, 2′S*, 3′S*)]-2-[2′-Hydroxy-3′-phenylthiomethyl-4′-aza-5′-oxo-5′-(3″-methyl-thieno-2″-yl)pentyl]-decahydroisoquinoline-3-N-t-butyl carboxamide]
IC50 (HIV-1 protease; [5]): 48.4 nM

Cc1c(N)cc(N)cc1C(=O)N[C@H](CSc1ccc2ccccc2c1)[C@H](O)Cc1ccccc1C(=O)NC(C)(C)C (relative stereo) [Example 53, [2′R-(2′R*,3′S*)]-N-t-Butyl-2-[2′-hydroxy-3′-naphth-2-ylthiomethyl-4′-aza-5′-oxo-5′-(2″-methyl-3″,5″-diaminophenyl)pentyl] benzamide]
Fluorescence Assay IC50 (HIV-1 protease; [6]): 0.055 µg/mL

Cc1ccc(O)c(C)c1C(=O)NC(CSc1ccccc1)C(O)CN1CC2CCCCC2CC1C(=O)NC(C)(C)C (stereo not drawn) [Example 39, [3S-(3R*,4aR*,8aR*,2′S*,3′S*)]-2-[2′-Hydroxy-3′-phenylthiomethyl-4′-aza-5′-oxo-5′-[2″,6″-dimethyl-3″-hydroxyphenyl)pentyl] decahydroisoquinoline-3-N-t-butylcarboxamide]
IC50 (HIV-1 protease; [4]): 9.11 nM | IC50 (HIV-1 protease; [5]): 13.7 nM

Cc1ccc(N)cc1C(=O)N[C@H](CSc1ccc2ccccc2c1)[C@H](O)Cc1ccccc1C(=O)NC(C)(C)C (relative stereo) [Example 47, [2′R-(2′R*,3′S*)]-N-t-Butyl-2-[2′-hydroxy-3′-naphth-2-ylthiomethyl-4′-aza-5′-oxo-5′-(2″-methyl-5″-aminophenyl)pentyl] benzamide]
Fluorescence Assay IC50 (HIV-1 protease; [6]): 0.091 µg/mL

CC(C)(C)NC(=O)c1ccccc1C[C@@H](O)[C@H](Cc1ccccc1)NC(=O)c1cccc2c1CCNC2 [Example 60, [2′R-(2′R*,3′S*)]-N-t-Butyl-2-[2′-hydroxy-3′-phenylmethyl-4′-aza-5′-oxo-5′-(1″,2″,3″,4″-tetrahydroisoquinolin-5″-yl)pentyl] benzamide]
IC50 (HIV-1 protease; [4]): 801 nM

CC(C)(C)NC(=O)C1CC2CCCCC2CN1CC(O)C(Cc1ccccc1)NC(=O)c1cc(O)cc(O)c1Cl (stereo not drawn) [Example 8, [3S-(3R*,4aR*,8aR*,2′S*,3′R*)]-2-[2′-Hydroxy-3′-phenylmethyl-4′-aza-5′-oxo-5′-(2″-chloro-3″,5″-dihydroxyphenyl)pentyl] decahydroisoquinoline-3-N-t-butylcarboxamide]
IC50 (HIV-1 protease; [4]): 28.7 nM | IC50 (HIV-1 protease; [5]): 10.1 nM

[3S-(3R*,4aR*,8aR*,2′S*,3′S*)]-2-[2′-Hydroxy-3′-phenylthiomethyl-4′-aza-5′-oxo-5′-[6″-methyl-(1″,2″,3″,4″-tetrahydroquinolin-5″-yl)]pentyl] decahydroisoquinoline-3-N-t-butylcarboxamide [Example 38]
Fluorescence Assay IC50 (HIV-1 protease; [6]): 0.0152 µg/mL | Pandex IC50 ng/ml (HIV-1 protease; value as run, 35B value of the same run in footnote or parentheses): 35^e ng/ml

CC(C)(C)NC(=O)c1ccccc1CC(O)C(CSc1ccc2ccccc2c1)NC(=O)c1cccc(Cl)c1Cl (stereo not drawn) [Example 54, [2′R-(2′R*,3′S*)]-N-t-Butyl-2-[2′-hydroxy-3′-naphth-2-ylthiomethyl-4′-aza-5′-oxo-5′-(2″,2″-dichlorophenyl)pentyl] benzamide]
IC50 (HIV-1 protease; [4]): 129 nM

COc1cccc(C(=O)NC(Cc2ccccc2)C(O)CN2CC3CCCCC3CC2C(=O)NC(C)(C)C)c1C (stereo not drawn) [Example 13, [3S-(3R*,4aR*,8aR*,2′S*,3′R*)]-2-[2′-Hydroxy-3′-phenylmethyl-4′-aza-5′-oxo-5′-(2″-methyl-3″-methoxyphenyl)pentyl] decahydroisoquinoline-3-N-t-butylcarboxamide]
IC50 (HIV-1 protease; [4]): 629 nM

Cc1ccc(CO)cc1C(=O)N[C@@H](Cc1ccccc1)[C@H](O)Cc1ccccc1C(=O)NC(C)(C)C (relative stereo) [Example 41, [2′R-(2′R*,3′S*)]-N-t-Butyl-2-[2′-hydroxy-3′-phenylmethyl-4′-aza-5′-oxo-5′-(2″methyl-5″-hydroxymethylphenyl)pentyl] benzamide]
Fluorescence Assay IC50 (HIV-1 protease; [6]): 0.006 µg/mL

CNc1cccc(C(=O)N[C@H](CSc2ccc3ccccc3c2)[C@H](O)Cc2ccccc2C(=O)NC(C)(C)C)c1C (relative stereo) [Example 43, [2′R-(2′R*,3′S*)]-N-t-Butyl-2-[2′-hydroxy-3′-naphth-2-ylthiomethyl-4′-aza-5′-oxo-5′-(2″-methyl-3″N(methyl)aminophenyl)pentyl] benzamide]
Fluorescence Assay IC50 (HIV-1 protease; [6]): 0.54 µg/mL

Cc1c(O)cccc1C(=O)N[C@@H](CSc1ccccc1)[C@H](O)CN1C[C@H]2CCCC[C@H]2C[C@H]1C(=O)NC(C)(C)C (relative stereo) [Example 75, [3S-(3R*, 4aR*, 8aR*, 2′S*, 3′S*)]-2-[2′-Hydroxy-3′-phenylthiomethyl-4′-aza-5′-oxo-5′-(2″-methyl-3″-hydroxyphenyl)pentyl]-decahydroisoquinoline-3-N-t-butyl carboxamide methanesulfonic acid salt]
IC50 [1, 2]: 14.5 nM | IC90 [1, 3]: 56.1 nM
